Measurements as given in ChEMBL document CHEMBL4414595, “Tripterfordins A-O, Dihydro-β-agarofuran Sesquiterpenoids from the Leaves of Tripterygium wilfordii” (J Nat Prod, 2019).

System: RAW264.7
Assay: Anti-inflammatory activity in mouse RAW264.7 cells assessed as inhibition of LPS-induced NO production by Griess assay
Format: functional, cell-based

| IC50 | SMILES |
| --- | --- |
| 31 µM | CC(=O)OC[C@]12[C@H](OC(C)=O)[C@@H](OC(C)=O)[C@@H]3[C@@H](O)[C@]1(OC3(C)C)[C@@](C)(O)C[C@H](OC(C)=O)[C@@H]2OC(=O)/C=C\c1ccccc1 |
| > 100 µM | CC(=O)OC[C@]12[C@H](OC(C)=O)C(=O)[C@@H]3C[C@]1(OC3(C)C)[C@@](C)(O)C[C@H](OC(C)=O)[C@@H]2OC(=O)/C=C/c1ccccc1 |
| > 100 µM | CC(=O)OC[C@]12[C@H](OC(C)=O)C(=O)[C@@H]3[C@@H](O)[C@]1(OC3(C)C)[C@@](C)(O)C[C@H](OC(C)=O)[C@@H]2OC(=O)/C=C/c1ccccc1 |
| > 100 µM | CC(=O)OC[C@]12[C@H](OC(C)=O)[C@@H](OC(C)=O)[C@@H]3[C@@H](OC(C)=O)[C@]1(OC3(C)C)[C@@](C)(O)C[C@H](OC(C)=O)[C@@H]2OC(=O)/C=C\c1ccccc1 |
| 19.1 µM | CC(=O)OC[C@]12[C@H](OC(C)=O)[C@@H](OC(C)=O)[C@@H]3C[C@]1(OC3(C)C)[C@@](C)(O)C[C@H](OC(C)=O)[C@@H]2OC(=O)/C=C\c1ccccc1 |
| > 100 µM | CC(=O)OC[C@]12[C@H](OC(C)=O)[C@@H](OC(C)=O)[C@@H]3[C@@H](O)[C@]1(OC3(C)C)[C@H](C)[C@@H](O)[C@H](OC(C)=O)[C@@H]2OC(=O)/C=C/c1ccccc1 |
| > 100 µM | CC(=O)OC[C@]12[C@H](OC(C)=O)[C@@H](O)[C@@H]3[C@@H](O)[C@]1(OC3(C)C)[C@@](C)(O)C[C@H](O)[C@@H]2OC(=O)/C=C/c1ccccc1 |
| 11.9 µM | CC(=O)OC[C@]12[C@H](OC(C)=O)[C@@H](OC(C)=O)[C@@H]3[C@@H](O)[C@]1(OC3(C)C)[C@H](C)C[C@H](OC(C)=O)[C@@H]2OC(=O)/C=C/c1ccccc1 |
| 53.7 µM | CC(=O)OC[C@]12[C@H](OC(C)=O)[C@@H](OC(C)=O)[C@@H]3[C@@H](O)[C@]1(OC3(C)C)[C@@](C)(O)[C@@H](O)[C@H](OC(C)=O)[C@@H]2OC(=O)/C=C/c1ccccc1 |
| > 100 µM | CC(=O)OC[C@]12[C@H](OC(C)=O)[C@@H](OC(C)=O)[C@@H]3C[C@]1(OC3(C)C)[C@@](C)(O)C[C@H](OC(C)=O)[C@@H]2OC(=O)/C=C/c1ccccc1 |
| > 100 µM | CC(=O)OC[C@]12[C@H](OC(C)=O)[C@@H](OC(C)=O)[C@@H]3C[C@]1(OC3(C)C)[C@H](C)C[C@H](OC(C)=O)[C@@H]2OC(=O)/C=C\c1ccccc1 |
| 24.2 µM | CC(=O)OC[C@]12[C@H](OC(C)=O)[C@@H](OC(C)=O)[C@@H]3[C@@H](O)[C@]1(OC3(C)C)[C@@](C)(O)C[C@H](OC(C)=O)[C@@H]2OC(=O)/C=C/c1ccccc1 |
| > 100 µM | CC(=O)OC[C@]12[C@H](OC(C)=O)[C@@H](OC(C)=O)[C@@H]3C[C@]1(OC3(C)C)[C@H](C)C[C@H](OC(C)=O)[C@@H]2OC(=O)/C=C/c1ccccc1 |
| 28.2 µM | CC(=O)OC[C@]12[C@H](OC(C)=O)[C@@H](OC(C)=O)[C@@H]3[C@@H](O)[C@]1(OC3(C)C)[C@H](C)C[C@H](OC(C)=O)[C@@H]2OC(=O)/C=C\c1ccccc1 |
| > 100 µM | CC(=O)O[C@H]1C[C@@H](C)[C@]23OC(C)(C)[C@H]([C@H](O)[C@@H](OC(=O)c4ccccc4)[C@]2(CO)[C@H]1OC(=O)/C=C/c1ccccc1)[C@H]3OC(C)=O |
| 42.4 µM | C[C@]12CCC(=O)C=C1CC[C@@H]1[C@@H]2[C@@H](O)C[C@@]2(C)[C@H]1CC[C@]2(O)C(=O)COC(=O)CCC(=O)O [HYDROCORTISONE SODIUM SUCCINATE] |
